Results from patent US11339171B2, “MDM2 inhibitors” (Gan & Lee Pharmaceuticals, priority 2017, dated 2022).

Assays:
[1] = tested on: human osteosarcoma cell line SJSA-1; experiment: Inhibition of proliferation of human osteosarcoma cell line SJSA-1 (DAPI staining, In Cell Analyzer); conditions: for IC50: Homo sapiens, SJSA-1, 72 h, read-out: IC50 (nM), inhibitory activity on proliferation of human osteosarcoma cell line SJSA-1, SJSA-1, incubated 72 h; for inhibitory effect on human osteosarcoma cell line SJSA-1 compared with positive control compound HDM201: labels are Example numbers, the compounds with S-configuration are meant
MDM2 = target: T1, MDM2 (Homo sapiens, UniProt Q00987); experiment: Inhibition test of MDM2-P53 (GST-MDM2, Biotin-P53, Anti-GST-Tb, SA-XL665); format: binding; conditions: for inhibitory effect on MDM2 compared with positive control compound HDM201: labels are Example numbers, the compounds with S-configuration are meant
T1 construct: made in house
Summary of the method: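 HTRF-type assay using 4 nM GST-MDM2 (final), Biotin-P53, SA-XL665 and anti-GST-Tb in PBS with 0.1% BSA, 5 mM DTT and 1 mM AEBSF. Compounds in 5-fold serial dilutions over twelve points; incubation 90 min at 25° C with shaking before plate-reader read-out.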

T1 sequence (Q00987 whole entry): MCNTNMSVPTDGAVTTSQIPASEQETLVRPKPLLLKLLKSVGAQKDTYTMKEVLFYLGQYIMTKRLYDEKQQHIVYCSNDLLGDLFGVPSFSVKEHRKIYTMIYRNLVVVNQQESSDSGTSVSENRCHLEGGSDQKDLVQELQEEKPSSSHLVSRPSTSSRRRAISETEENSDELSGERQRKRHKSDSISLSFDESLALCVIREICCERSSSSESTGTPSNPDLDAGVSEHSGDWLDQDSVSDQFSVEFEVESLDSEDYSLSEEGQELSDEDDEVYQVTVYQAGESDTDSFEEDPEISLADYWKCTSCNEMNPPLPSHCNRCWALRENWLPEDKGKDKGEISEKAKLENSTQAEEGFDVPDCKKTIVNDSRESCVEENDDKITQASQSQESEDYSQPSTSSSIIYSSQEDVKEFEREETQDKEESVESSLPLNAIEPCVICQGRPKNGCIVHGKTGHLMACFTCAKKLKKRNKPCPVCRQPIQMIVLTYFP

Compound: COc1nc(C2CC2)ncc1-c1nc2c(n1C(C)C)[C@@]1(C(=O)Nc3cc(Cl)ccc31)N(c1cc(F)cc(Cl)c1)C2=O [Example S-174, (S)-6-chloro-5′-(3-chloro-5-fluorophenyl)-2′-(2-cyclopropyl-4-methoxypyrimidin-5-yl)-3′-isopropyl-3′H-spiro[dihydroindole-3,4′-pyrrolo[3,4-d]imidazole]-2,6′(5′H)-dione]
- IC50 [1]: 93.5 nM
- IC50 (MDM2): 4.12 nM

Compound: COc1nc(N(C)C)ncc1-c1nc2c(n1C(C)C)[C@@]1(C(=O)Nc3cc(Cl)ccc31)N(c1cc(Cl)ccc1C)C2=O [Example S-82, (S)-6-chloro-5′-(5-chloro-2-methylphenyl)-2′-(2-(dimethylamino)-4-methoxypyrimidin-5-yl)-3′-isopropyl-3′H-spiro[dihydroindole-3,4′-pyrrolo[3,4-d]imidazole]-2,6′(5′H)-dione]
- IC50 [1]: 7.43 nM
- IC50 (MDM2): 1.16 nM

Compound: COc1ncc(-c2nc3c(n2C(C)C)[C@]2(C(=O)Nc4cc(Cl)ccc42)N(c2cc(Cl)ccc2C)C3=O)c(OC)n1 [Example R-2, (R)-6-chloro-5′-(5-chloro-2-methylphenyl)-2′-(2,4-dimethoxypyrimidin-5-yl)-3′-isopropyl-3′H-spiro[dihydroindole-3,4′-pyrrolo[3,4-d]imidazole]-2,6′(5′H)-dione]
- IC50 [1]: 2770 nM
- IC50 (MDM2): 117 nM

Compound: CCOc1cc(OC)c(-c2nc3c(n2C(C)C)[C@@]2(C(=O)Nc4cc(Cl)ccc42)N(c2cc(F)cc(Cl)c2)C3=O)cn1 [Example S-139, (S)-6-chloro-5′-(3-chloro-5-fluorophenyl)-2′-(6-ethoxy-4-methoxypyridin-3-yl)-3′-isopropyl-3′H-spiro[dihydroindole-3,4′-pyrrolo[3,4-d]imidazole]-2,6′(5′H)-dione]
- IC50 [1]: 50.7 nM
- IC50 (MDM2): 1.36 nM

Compound: COc1nc(OC(C)C)ncc1-c1nc2c(n1C(C)C)C1(C(=O)Nc3cc(Cl)ccc31)N(c1cc(Cl)ccc1C)C2=O (centres unmarked) [Example 126, 6-chloro-5′-(5-chloro-2-methylphenyl)-2′-(2-isopropoxy-4-methoxypyrimidin-5-yl)-3′-isopropyl-3′H-spiro[dihydroindole-3,4′-pyrrolo[3,4-d]imidazole]-2,6′(5′H)-dione]
- inhibitory effect on human osteosarcoma cell line SJSA-1 compared with positive control compound HDM201 [1]: better
- inhibitory effect on MDM2 compared with positive control compound HDM201 (MDM2): better

Compound: COc1nc(OCC(F)F)ncc1-c1nc2c(n1C(C)C)[C@@]1(C(=O)Nc3cc(Cl)ccc31)N(c1cc(Cl)ccc1C)C2=O [Example S-147, (S)-6-chloro-5′-(5-chloro-2-methylphenyl)-2′-(2-(2,2-difluoroethoxy)-4-methoxypyrimidin-5-yl)-3′-isopropyl-3′H-spiro[dihydroindole-3,4′-pyrrolo[3,4-d]imidazole]-2,6′(5′H)-dione]
- IC50 [1]: 271 nM
- IC50 (MDM2): 5.89 nM

Compound: COc1cc(C(F)(F)F)ccc1-c1nc2c(n1C(C)C)[C@@]1(C(=O)Nc3cc(Cl)ccc31)N(c1cc(Cl)ccc1C)C2=O [Example S-85, (S)-6-chloro-5′-(5-chloro-2-methylphenyl)-3′-isopropyl-2′-(2-methoxy-4-(trifluoromethyl)phenyl)-3′H-spiro[dihydroindole-3,4′-pyrrolo[3,4-d]imidazole]-2,6′(5′H)-dione]
- IC50 [1]: 40.2 nM
- IC50 (MDM2): 3.3 nM

Compound: COc1ccc(-c2nc3c(n2C(C)C)[C@]2(C(=O)Nc4cc(Cl)ccc42)N(c2cc(Cl)ccc2C)C3=O)c(OC)n1 [Example R-8, (R)-6-chloro-5′-(5-chloro-2-methylphenyl)-2′-(2,6-dimethoxypyridin-3-yl)-3′-isopropyl-3′H-spiro[dihydroindole-3,4′-pyrrolo[3,4-d]imidazole]-2,6′(5′H)-dione]
- IC50 [1]: 2290 nM
- IC50 (MDM2): 329 nM

Compound: COc1cc(Cl)cc(N2C(=O)c3nc(-c4cnc(OC)nc4OC)n(C(C)C)c3[C@@]23C(=O)Nc2cc(Cl)ccc23)c1 [Example S-58, (S)-6-chloro-5′-(3-chloro-5-methoxyphenyl)-2′-(2,4-dimethoxypyrimidin-5-yl)-3′-isopropyl-3′H-spiro[dihydroindole-3,4′-pyrrolo[3,4-d]imidazole]-2,6′(5′H)-dione]
- IC50 [1]: 50.8 nM
- IC50 (MDM2): 11.4 nM

Compound: COc1cc(OC)c(-c2nc3c(n2C(C)C)C2(C(=O)Nc4cc(Cl)ccc42)N(c2cccc(Cl)c2)C3=O)cn1 (centres unmarked) [Example 115, 6-chloro-5′-(3-chlorophenyl)-2′-(4,6-dimethoxypyridin-3-yl)-3′-isopropyl-3′H-spiro[dihydroindole-3,4′-pyrrolo[3,4-d]imidazole]-2,6′(5′H)-dione]
- inhibitory effect on human osteosarcoma cell line SJSA-1 compared with positive control compound HDM201 [1]: better
- inhibitory effect on MDM2 compared with positive control compound HDM201 (MDM2): better

Compound: COc1cc(OC)c(-c2nc3c(n2C(C)C)[C@]2(C(=O)Nc4cc(Cl)ccc42)N(c2cccc(Cl)c2)C3=O)cn1 [Example R-115, (R)-6-chloro-5′-(3-chlorophenyl)-2′-(4,6-dimethoxypyridin-3-yl)-3′-isopropyl-3′H-spiro[dihydroindole-3,4′-pyrrolo[3,4-d]imidazole]-2,6′(5′H)-dione]
- IC50 [1]: 26.9 nM
- IC50 (MDM2): 269 nM

Compound: COc1ccccc1-c1nc2c(n1C(C)C)[C@]1(C(=O)Nc3cc(Cl)ccc31)N(c1cc(Cl)c(=O)n(C)c1)C2=O [Example R-53, (R)-6-chloro-5′-(5-chloro-1-methyl-6-oxo-1,6-dihydropyridin-3-yl)-3′-isopropyl-2′-(2-methoxyphenyl)-3′H-spiro[dihydroindole-3,4′-pyrrolo[3,4-d]imidazole]-2,6′(5′H)-dione]
- IC50 [1]: 77400 nM
- IC50 (MDM2): 3770 nM

Compound: Cc1ccc(Cl)cc1N1C(=O)c2nc(-c3ccccc3OC(F)(F)F)n(C(C)C)c2[C@@]12C(=O)Nc1cc(Cl)ccc12 [Example S-31, (S)-6-chloro-5′-(5-chloro-2-methylphenyl)-3′-isopropyl-2′-(2-(trifluoromethoxy)phenyl)-3′H-spiro[dihydroindole-3,4′-pyrrolo[3,4-d]imidazole]-2,6′(5′H)-dione]
- IC50 [1]: 1580 nM
- IC50 (MDM2): 60.1 nM

Compound: COc1cc(N)ccc1-c1nc2c(n1C(C)C)C1(C(=O)Nc3cc(Cl)ccc31)N(c1cc(Cl)ccc1C)C2=O (centres unmarked) [Example 49, 2′-(4-amino-2-methoxyphenyl)-6-chloro-5′-(5-chloro-2-methylphenyl)-3′-isopropyl-3′H-spiro[dihydroindole-3,4′-pyrrolo[3,4-d]imidazole]-2,6′(5′H)-dione]
- inhibitory effect on human osteosarcoma cell line SJSA-1 compared with positive control compound HDM201 [1]: better
- inhibitory effect on MDM2 compared with positive control compound HDM201 (MDM2): better

Compound: CCc1ccc(-c2nc3c(n2C(C)C)[C@@]2(C(=O)Nc4cc(Cl)ccc42)N(c2cc(Cl)ccc2C)C3=O)c(OC)c1 [Example S-33, (S)-6-chloro-5′-(5-chloro-2-methylphenyl)-2′-(4-ethyl-2-methoxyphenyl)-3′-isopropyl-3′H-spiro[dihydroindole-3,4′-pyrrolo[3,4-d]imidazole]-2,6′(5′H)-dione]
- IC50 [1]: 9.7 nM
- IC50 (MDM2): 2.47 nM

Compound: COc1cc(N(C)C)ncc1-c1nc2c(n1C(C)C)C1(C(=O)Nc3cc(Cl)ccc31)N(c1cc(Cl)cnc1C)C2=O (centres unmarked) [Example 155, 6-chloro-5′-(5-chloro-2-methylpyridin-3-yl)-2′-(6-(dimethylamino)-4-methoxypyridin-3-yl)-3′-isopropyl-3′H-spiro[dihydroindole-3,4′-pyrrolo[3,4-d]imidazole]-2,6′(5′H)-dione]
- inhibitory effect on human osteosarcoma cell line SJSA-1 compared with positive control compound HDM201 [1]: better
- inhibitory effect on MDM2 compared with positive control compound HDM201 (MDM2): better
